Values of other authors as cited in patent US8916562B2, “Methods and compositions for safe and effective treatment of telangiectasia” (Galderma Research & Development SNC, priority 2010, dated 2014).

Conditions: brimonidine ophthalmic treatment, clinical trials

patients reporting hypertension, palpitations and syncope: less than 3%
SMILES: Brc1c(NC2=NCCN2)ccc2nccnc12 [brimonidine, (5-bromo-quinoxalin-6-yl)-(4,5-dihydro-1H-imidazol-2-yl)-amine]
